The values below are quoted from earlier work in patent US20210319872A1, “DRUG AND DEVICE COMBINATION PRODUCTS WITH IMPROVED SAFETY AND EFFICACY PROFILES” (priority 2016, published 2021).

The conditions of the data set: in vivo.

The structures appear in SMILES notation. Read-outs that look alike come from different tables or passages of the source.

For `C[C@@H](Cc1ccccc1)NC(=O)[C@@H](N)CCCCN` [Lisdexamfetamine (Vyvanse)], the Anxiety entry is listed as “Psychiatric: Anxiety (Adults, 5% to 6%), Irritability (pediatrics,”; the “Common side effects, listed without incidence” value is “Endocrine metabolic: Decreased body growth, Weight decreased”; the Diarrhea result is “Gastrointestinal: Diarrhea (adults, 7%), Loss of appetite (adults, 8%”; the Irritability is listed as 10%). Besides, the Rash result is on record as “Dermatologic: Rash (pediatrics, 3%)”; the Upper abdominal pain is on record as 6%), Upper abdominal pain (pediatrics, 12%), Vomiting; the Vomiting result is given as “(pediatrics, 9%), Xerostomia (Adults, 26% to 36%; pediatrics, 4%”; the Weight decreased entry is given as “(pediatrics, 9%)”. Further, the Xerostomia entry is on record as “(pediatrics, 9%), Xerostomia (Adults, 26% to 36%; pediatrics, 4%”.
For `COC(=O)C1=C(C)NC(C)=C(C(=O)OC)C1c1ccccc1[N+](=O)[O-]` [Nifedipine (Adalat, Procardia)], the Dizziness result is “Neurologic: Dizziness (4% to 10%), Headache (19% to 23%)”; the Flushing entry is reported as “Dermatologic: Flushing (4% to 25%)”; the Headache result is given as “Neurologic: Dizziness (4% to 10%), Headache (19% to 23%)”; the Hypotension entry is “Cardiovascular: Hypotension (up to 5%), Palpitations (up to 7%),”. Also, the Myocardial infarction result was “Cardiovascular: Myocardial infarction (up to 4%), Ventricular”; the Nausea result is listed as “Gastrointestinal: Nausea (up to 10%)”; the Palpitations entry is listed as “Cardiovascular: Hypotension (up to 5%), Palpitations (up to 7%),”; the Peripheral edema result is on record as “Peripheral edema (7% to 29%)”. The Ventricular arrhythmia result was “arrhythmia (less than 0.5%)”.
`CC(C)(C)NC[C@H](O)COc1nsnc1N1CCOCC1` [Timolol (Blocadren)]: the “Burning sensation in eye” value is “sensation in eye (Ophthalmic, 12.5% to 20%), Dry eyes”; the Cardiac dysrhythmia entry was “Cardiovascular: Cardiac dysrhythmia (1%), Myocardial infarction”; the Confusion entry is “Neurologic: Confusion (13%), Dizziness (2.3% to 6%, oral),”; the Depression entry is on record as “Psychiatric: Depression (9.2%, ophthalmic), Hallucinations (11%),”. Besides, the Hallucinations entry is listed as “Psychiatric: Depression (9.2%, ophthalmic), Hallucinations (11%),”; the Headache result is “Headache (1.7%, oral; 1% to 5%, ophthalmic)”; the Psychotic disorder entry is “Psychotic disorder (3%)”; the “Serious side effects, listed without incidence or only as rare” value is “Cardiovascular: Cardiac dysrhythmia (1%), Myocardial infarction”. For the same compound, for the setting “po”, the Bradyarrhythmia entry was “Cardiovascular: Angina, Bradyarrhythmia (5% to 9.1%, oral),”; the Bronchospasm entry was “Respiratory: Bronchospasm (0.6%, oral)”; the Dizziness result is reported as “Neurologic: Confusion (13%), Dizziness (2.3% to 6%, oral),”; the Dyspnea result is recorded as “Respiratory: Cough, Dyspnea (1.7%, oral)”. Moreover, where the note is “po”, the Fatigue entry was “Other: Fatigue (3.4% to 5%, oral), Infectious disease”; the Headache entry is “Headache (1.7%, oral; 1% to 5%, ophthalmic)”; the Heart failure result is listed as “Heart failure (8%, oral), Hypotension”.
